Experimental data: US11407737B2, “Inhibitors of RAF kinases” (Kinnate Biopharma Inc., priority 2020, dated 2022)
Read-outs that look alike come from different tables or passages of the source.

Target: human RAF1 (Homo sapiens (Human), UniProt P04049)
Test: Protein kinase assay (radiometric 33P-ATP, MEK1 (K97R) substrate), RAF-1
Type: biochemical
Procedure: Example 1: Kinase Assay Protocol
Assay platform was used to measure kinase/inhibitor interactions as described previously (Anastassiadis et al., 2011). In brief, for each reaction, kinase and substrate were mixed in a buffer containing 20 mM HEPES (pH 7.5), 10 mM MgCl2, 1 mM EGTA, 0.02% Brij35, 0.02 mg/mL BSA, 0.1 mM Na3VO4, 2 mM DTT, and 1% DMSO. All compounds were solubilized in DMSO. Compounds were then added to each reaction mixture via acoustic dispense using an ECHO 550 nanoliter dispenser. For human RAF1 testing, human MEK1 (K97R) was used as a substrate at a concentration of 3 micromolar, with a final ATP concentration of 10 micromolar. For human BRAF testing, human MEK1 (K97R) was used as a substrate at 1 micromolar concentration, with a final ATP concentration of 25 micromolar. […] After a 20-min incubation, ATP (Sigma-Aldrich, St. Louis, Mo. 63178) and [g33P] ATP (specific activity 10 microCi/microliter) purchased at PerkinElmer (Boston, Mass., 02118 Cat #BLU 003H250UC) were added at a final total concentration of […]. Reactions were carried out at room temperature for 2 hr and spotted onto P81 ion exchange cellulose chromatography paper (Reaction Biology). Filter paper was washed in 0.75% phosphoric acid to remove unincorporated ATP. The percent remaining kinase activity relative to a vehicle-containing (DMSO) kinase reaction was calculated for each kinase/inhibitor pair. IC50 values were calculated using Prism 5 (GraphPad).

[1] = human MEK1 (K97R) substrate 3 micromolar, ATP 10 micromolar, 10-dose, 3-fold serial dilution starting at 10 micromolar, read-out: RAF-1 IC50

human RAF1, sequence (P04049 whole entry): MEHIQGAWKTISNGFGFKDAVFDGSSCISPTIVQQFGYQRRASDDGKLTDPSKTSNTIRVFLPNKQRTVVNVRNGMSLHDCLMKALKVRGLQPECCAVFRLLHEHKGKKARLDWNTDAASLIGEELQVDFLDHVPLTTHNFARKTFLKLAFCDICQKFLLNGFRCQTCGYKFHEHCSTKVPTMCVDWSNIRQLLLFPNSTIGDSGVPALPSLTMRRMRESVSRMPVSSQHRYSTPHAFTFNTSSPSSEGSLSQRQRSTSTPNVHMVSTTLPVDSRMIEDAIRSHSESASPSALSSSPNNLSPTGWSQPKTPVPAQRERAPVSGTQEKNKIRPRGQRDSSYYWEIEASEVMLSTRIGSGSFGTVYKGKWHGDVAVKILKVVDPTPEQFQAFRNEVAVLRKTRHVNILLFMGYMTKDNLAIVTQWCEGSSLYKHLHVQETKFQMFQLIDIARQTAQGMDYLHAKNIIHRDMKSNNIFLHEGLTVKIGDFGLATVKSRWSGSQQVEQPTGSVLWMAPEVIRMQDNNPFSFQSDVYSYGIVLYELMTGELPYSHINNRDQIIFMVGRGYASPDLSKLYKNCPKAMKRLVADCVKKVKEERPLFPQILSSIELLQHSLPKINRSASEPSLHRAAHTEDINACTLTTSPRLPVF

Structure (SMILES) | IC50 [1] [nM] | IC50 [nM]
Cc1ccc(NC(=O)N2CC[C@@H](CC(F)(F)F)C2)cc1-c1cc(C(=O)NC[C@@H](C)O)nc(N2CCOCC2)c1 [Example 5, N-[(2R)-2-hydroxypropyl]-4-[2-methyl-5-[(3S)-3-(2,2,2-trifluoroethyl)pyrrolidine-1-carbonylamino]phenyl]-6-(morpholin-4-yl)pyridine-2-carboxamide] | – | 1 to 10
Cc1ccc(NC(=O)N2CC[C@@H](CC(F)(F)F)C2)cc1-c1cc(C(=O)N[C@H](C)CO)nc(N2CCOCC2)c1 [Example 6, N-[(2R)-1-hydroxypropan-2-yl]-4-[2-methyl-5-[(3S)-3-(2,2,2-trifluoroethyl)pyrrolidine-1-carbonylamino]phenyl]-6-(morpholin-4-yl)pyridine-2-carboxamide] | 1 to 10 | –
Cc1ccc(NC(=O)N2CC[C@@H](CC(F)(F)F)C2)cc1-c1cc(C(=O)NC[C@H](C)O)nc(N2CCOCC2)c1 [Example 7, N-[(2S)-2-hydroxypropyl]-4-[2-methyl-5-[(3S)-3-(2,2,2-trifluoroethyl)pyrrolidine-1-carbonylamino]phenyl]-6-(morpholin-4-yl)pyridine-2-carboxamide] | < 1 | –
Cc1ccc(NC(=O)N2CC[C@@H](CC(F)(F)F)C2)cc1-c1cc(C(=O)N[C@@H](C)CO)nc(N2CCOCC2)c1 [Example 8, N-[(2S)-1-hydroxypropan-2-yl]-4-[2-methyl-5-[(3S)-3-(2,2,2-trifluoroethyl)pyrrolidine-1-carbonylamino]phenyl]-6-(morpholin-4-yl)pyridine-2-carboxamide] | < 1 | –
Cc1ccc(NC(=O)N2CC[C@@H](CC(F)(F)F)C2)cc1-c1cc(C(=O)NCC(C)(C)O)nc(N2CCOCC2)c1 [Example 9, N-(2-hydroxy-2-methylpropyl)-4-[2-methyl-5-[(3S)-3-(2,2,2-trifluoroethyl)pyrrolidine-1-carbonylamino]phenyl]-6-(morpholin-4-yl)pyridine-2-carboxamide] | 1 to 10 | –
Cc1ccc(NC(=O)N2CC[C@@H](CC(F)(F)F)C2)cc1-c1cc(C#CC(C)(C)O)nc(N2CCOCC2)c1 [Example 10, (3S)—N-[3-[2-(3-hydroxy-3-methylbut-1-yn-1-yl)-6-(morpholin-4-yl)pyridin-4-yl]-4-methylphenyl]-3-(2,2,2-trifluoroethyl)pyrrolidine-1-carboxamide] | 1 to 10 | –
Cc1ccc(NC(=O)N2CC[C@@H](CC(F)(F)F)C2)cc1-c1cc(C#C[C@@H](C)O)nc(N2CCOCC2)c1 [Example 11, (3S)—N-(3-[2-[(3R)-3-hydroxybut-1-yn-1-yl]-6-(morpholin-4-yl)pyridin-4-yl]-4-methylphenyl)-3-(2,2,2-trifluoroethyl)pyrrolidine-1-carboxamide] | 1 to 10 | –
Cc1ccc(NC(=O)N2CC[C@@H](CC(F)(F)F)C2)cc1-c1cc(-c2cn(C)nn2)nc(N2CCOCC2)c1 [Example 14, (S)—N-(4-methyl-3-(2-(1-methyl-1H-1,2,3-triazol-4-yl)-6-morpholinopyridin-4-yl)phenyl)-3-(2,2,2-trifluoroethyl)pyrrolidine-1-carboxamide] | 1 to 10 | –
Cc1ccc(NC(=O)N2CC[C@@H](CC(F)(F)F)C2)cc1-c1cc(-c2cncs2)nc(N2CCOCC2)c1 [Example 15, (3S)—N-[4-methyl-3-[2-(morpholin-4-yl)-6-(1,3-thiazol-5-yl)pyridin-4-yl]phenyl]-3-(2,2,2-trifluoroethyl)pyrrolidine-1-carboxamide] | 1 to 10 | –
Cc1ccc(NC(=O)N2CC[C@@H](CC(F)(F)F)C2)cc1-c1cc(-c2cncn2C)nc(N2CCOCC2)c1 [Example 16, (3S)—N-[4-methyl-3-[2-(3-methylimidazol-4-yl)-6-(morpholin-4-yl)pyridin-4-yl]phenyl]-3-(2,2,2-trifluoroethyl)pyrrolidine-1-carboxamide] | 1 to 10 | –
Cc1ccc(NC(=O)N2CC[C@@H](CC(F)(F)F)C2)cc1-c1cc(/C=C/[C@@H](C)O)nc(N2CCOCC2)c1 [Example 17, (3S)—N-(3-[2-[(1E,3R)-3-hydroxybut-1-en-1-yl]-6-(morpholin-4-yl)pyridin-4-yl]-4-methylphenyl)-3-(2,2,2-trifluoroethyl)pyrrolidine-1-carboxamide] | 1 to 10 | –
Cc1ccc(NC(=O)N2CC[C@@H](CC(F)(F)F)C2)cc1-c1cc(C(=O)N(C)CCO)nc(N2CCOCC2)c1 [Example 18, N-(2-hydroxyethyl)-N-methyl-4-[2-methyl-5-[(3S)-3-(2,2,2-trifluoroethyl)pyrrolidine-1-carbonylamino]phenyl]-6-(morpholin-4-yl)pyridine-2-carboxamide] | < 1 | –
Cc1ccc(NC(=O)N2CC[C@@H](CC(F)(F)F)C2)cc1-c1cc(C(=O)N2CC(O)C2)nc(N2CCOCC2)c1 [Example 20, (3S)—N-[3-[2-(3-hydroxyazetidine-1-carbonyl)-6-(morpholin-4-yl)pyridin-4-yl]-4-methylphenyl]-3-(2,2,2-trifluoroethyl)pyrrolidine-1-carboxamide] | < 1 | –
Cc1ccc(NC(=O)N2CC[C@@H](CC(F)(F)F)C2)cc1-c1cc(C(=O)N2CC(C)(O)C2)nc(N2CCOCC2)c1 [Example 21, (3S)—N-[3-[2-(3-hydroxy-3-methylazetidine-1-carbonyl)-6-(morpholin-4-yl)pyridin-4-yl]-4-methylphenyl]-3-(2,2,2-trifluoroethyl)pyrrolidine-1-carboxamide] | < 1 | –

Continued, in another order:

IC50 [1] [nM] | Structure (SMILES) | IC50 [nM]
1 to 10 | Cc1cc(F)c(NC(=O)N2CC[C@@H](C(F)(F)C(F)(F)F)C2)cc1-c1cc(-c2cnn(C)c2)nc(N2CCOCC2)c1 (single isomer, unassigned) [Example 80] | –
1 to 10 | Cc1cc(F)c(NC(=O)N2CC[C@H](C(F)(F)C(F)(F)F)C2)cc1-c1cc(-c2cnn(C)c2)nc(N2CCOCC2)c1 (single isomer, unassigned) [Example 81] | –
1 to 10 | Cc1cc(F)c(NC(=O)N2CC[C@@H](C(C)(C)C)C2)cc1-c1cc(-c2cnn(C)c2)nc(N2CCOCC2)c1 (single isomer, unassigned) [Example 82] | –
< 1 | Cc1cc(F)c(NC(=O)N2CC[C@@H](C(C)(F)F)C2)cc1-c1cc(-c2cnn(C)c2)nc(N2CCOCC2)c1 (single isomer, unassigned) [Example 84] | –
1 to 10 | Cc1cc(-c2cc(NC(=O)N3CC[C@@H](CC(F)(F)F)C3)ccc2C)cc(N2CCOCC2)n1 [Example 1, (3S)—N-[4-methyl-3-[2-methyl-6-(morpholin-4-yl)pyridin-4-yl]phenyl]-3-(2,2,2-trifluoroethyl)pyrrolidine-1-carboxamide] | –
1 to 10 | Cc1ccc(NC(=O)N2CC[C@@H](CC(F)(F)F)C2)cc1-c1cc(C(N)=O)nc(N2CCOCC2)c1 [Example 2, 4-[2-methyl-5-[(3S)-3-(2,2,2-trifluoroethyl)pyrrolidine-1-carbonylamino]phenyl]-6-(morpholin-4-yl)pyridine-2-carboxamide] | –
1 to 10 | CNC(=O)c1cc(-c2cc(NC(=O)N3CC[C@@H](CC(F)(F)F)C3)ccc2C)cc(N2CCOCC2)n1 [Example 3, N-methyl-4-[2-methyl-5-[(3S)-3-(2,2,2-trifluoroethyl)pyrrolidine-1-carbonylamino]phenyl]-6-(morpholin-4-yl)pyridine-2-carboxamide] | –
1 to 10 | Cc1ccc(NC(=O)N2CC[C@@H](CC(F)(F)F)C2)cc1-c1cc(C(=O)NCCO)nc(N2CCOCC2)c1 [Example 4, N-(2-hydroxyethyl)-4-[2-methyl-5-[(3S)-3-(2,2,2-trifluoroethyl)pyrrolidine-1-carbonylamino]phenyl]-6-(morpholin-4-yl)pyridine-2-carboxamide] | –
< 1 | Cc1ccc(NC(=O)N2CC[C@@H](CC(F)(F)F)C2)cc1-c1cc(CC[C@@H](C)O)nc(N2CCOCC2)c1 [Example 12, (3S)—N-(3-[2-[(3R)-3-hydroxybutyl]-6-(morpholin-4-yl)pyridin-4-yl]-4-methylphenyl)-3-(2,2,2-trifluoroethyl)pyrrolidine-1-carboxamide] | –
< 1 | Cc1ccc(NC(=O)N2CC[C@@H](CC(F)(F)F)C2)cc1-c1cc([C@@H]2C[C@@H]2CO)nc(N2CCOCC2)c1 [Example 13, (3S)—N-(3-[2-[(1R,2S)-2-(hydroxymethyl)cyclopropyl]-6-(morpholin-4-yl)pyridin-4-yl]-4-methylphenyl)-3-(2,2,2-trifluoroethyl)pyrrolidine-1-carboxamide] | –
< 1 | Cc1ccc(NC(=O)N2CC[C@@H](CC(F)(F)F)C2)cc1-c1cc(-c2cnn(C)c2)nc(N2CCOCC2)c1 [Example 22, (3S)—N-[4-methyl-3-[2-(1-methylpyrazol-4-yl)-6-(morpholin-4-yl)pyridin-4-yl]phenyl]-3-(2,2,2-trifluoroethyl)pyrrolidine-1-carboxamide] | –
< 1 | Cc1ccc(NC(=O)N2CC[C@@H](CC(F)(F)F)C2)cc1-c1cc(/C=C/CO)nc(N2CCOCC2)c1 [Example 23, (3S)—N-(3-[2-[(1E)-3-hydroxyprop-1-en-1-yl]-6-(morpholin-4-yl)pyridin-4-yl]-4-methylphenyl)-3-(2,2,2-trifluoroethyl)pyrrolidine-1-carboxamide] | –
